The series has as its system Caco-2 monolayers.

Turning to lucifer yellow, the Papp (usually the rate of passage across a membrane or cell layer, normalised by area and donor concentration) is under 1e+12 ×10⁻⁶ cm/s.

Source of the values: paper PMC6914219 (European journal of pharmacology, 2019).
